Laboratory results from patent publication US8802597B2, “Herbicidal pyrimidines” (E I du Pont de Nemours and Company, priority 2003, dated 2014).

Tests used:
Type in all cases: in vivo
[1] = system: barnyardgrass (Echinochloa crus-galli); experiment: Test A pre/postemergence
Outline: (§1)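 Visual injury scores on a 0–100 scale, 100 being complete control, were assigned roughly ten days after treatment by comparison with untreated greenhouse controls. Test chemicals, formulated with surfactant in non-phytotoxic solvent, were sprayed onto soil preemergence and onto 1–2-leaf plants 2–10 cm tall postemergence.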

[2] = system: crabgrass (Digitaria sanguinalis); experiment: Test A pre/postemergence
Outline: as §1

[3] = system: giant foxtail (Setaria faberi); experiment: Test A pre/postemergence
Outline: as §1

[4] = system: morningglory (Ipomoea spp.); experiment: Test A pre/postemergence
Outline: as §1

[5] = system: redroot pigweed (Amaranthus retroflexus); experiment: Test A pre/postemergence
Outline: as §1

[6] = system: velvetleaf (Abutilon theophrasti); experiment: Test A pre/postemergence
Outline: as §1

[7] = system: bermudagrass (Cynodon dactylon); experiment: Test C pre/postemergence; conditions: for Bermudagrass plant response rating: scale 0 to 100 (0 no effect, 100 complete control)
Excerpt: (§2) Seeds or nutlets of plant species selected from bermudagrass (Cynodon dactylon), Surinam grass (Brachiaria decumbens), cocklebur (Xanthium strumarium), corn (Zea mays), crabgrass (Digitaria sanguinalis), woolly cupgrass (Eriochloa villosa), giant foxtail (Setaria faberii), goosegrass (Eleusine indica), johnsongrass (Sorghum halepense), kochia (Kochia scoparia), lambsquarters (Chenopodium album), morningglory (Ipomoea coccinea), eastern black nightshade (Solanum ptycanthum), yellow nutsedge (Cyperus esculentus), pigweed (Amaranthus retroflexus), common ragweed (Ambrosia elatior), soybean (Glycine max), common (oilseed) sunflower (Helianthus annuus), and velvetleaf (Abutilon theophrasti) were planted and treated preemergence with test chemicals formulated in a non-phytotoxic solvent mixture which included a surfactant.
(§3) At the same time, plants selected from these crop and weed species and also winter barley (Hordeum vulgare), blackgrass (Alopecurus myosuroides), canarygrass (Phalaris minor), chickweed (Stellaria media), downy brome (Bromus tectorum), green foxtail (Setaria viridis), Italian ryegrass (Lolium multiflorum), wheat (Triticum aestivum), wild oat (Avena fatua) and windgrass (Apera spica-venti) were treated with postemergence applications of some of the test chemicals formulated in the same manner. Plants ranged in height from 2 to 18 cm (1- to 4-leaf stage) for postemergence treatments. Plant species in the flooded paddy test consisted of rice (Oryza sativa), umbrella sedge (Cyperus difformis), duck salad (Heteranthera limosa) and barnyardgrass (Echinochloa crus-galli) grown to the 2-leaf stage for testing. Treated plants and controls were maintained in a greenhouse for 12 to 14 days, after which time all species were compared to controls and visually evaluated. Plant response ratings, summarized in Table C, are based on a scale of 0 to 100 where 0 is no effect and 100 is complete control. A dash (-) response means no test result.

[8] = system: giant foxtail (Setaria faberii); experiment: Test C pre/postemergence
Excerpt: as §2, §3

[9] = system: johnsongrass (Sorghum halepense); experiment: Test C pre/postemergence
Excerpt: as §2, §3

soybean (Glycine max) = experiment: Test C pre/postemergence
Excerpt: as §2, §3

[10] = Postemergence, 125 g ai/ha, 0 to 100 scale (0 no effect, 100 complete control)
[11] = Postemergence, 500 g ai/ha, 0 to 100 scale (0 no effect, 100 complete control)
[12] = Preemergence, 125 g ai/ha, 0 to 100 scale where 0 is no effect and 100 is complete control, approximately ten days
[13] = Preemergence, 500 g ai/ha, 0 to 100 scale where 0 is no effect and 100 is complete control, approximately ten days
[14] = Postemergence, 250 g ai/ha, scale 0 to 100
[15] = Postemergence, 125 g ai/ha, scale 0 to 100 (0 no effect, 100 complete control)
[16] = Preemergence, 16 g ai/ha, scale 0 to 100, 0 no effect, 100 complete control
[17] = Preemergence, 31 g ai/ha, scale 0 to 100, 0 no effect, 100 complete control
[18] = Preemergence, 62 g ai/ha, scale 0 to 100, 0 no effect, 100 complete control
[19] = Preemergence, 125 g ai/ha, scale 0 to 100

| Compound | Plant response rating, Barnyardgrass [1, 10] | Plant response rating, Barnyardgrass [1, 11] | Plant response rating, Barnyardgrass [1, 12] | Plant response rating, Barnyardgrass [1, 13] | Plant response rating, Crabgrass [2, 10] | Plant response rating, Crabgrass [2, 11] | Plant response rating, Crabgrass [2, 12] | Plant response rating, Crabgrass [2, 13] | Plant response rating, Foxtail, Giant [3, 10] | Plant response rating, Foxtail, Giant [3, 11] | Plant response rating, Foxtail, Giant [3, 12] | Plant response rating, Foxtail, Giant [3, 13] | Plant response rating, Morningglory [4, 10] | Plant response rating, Morningglory [4, 11] | Plant response rating, Morningglory [4, 12] | Plant response rating, Morningglory [4, 13] | Plant response rating, Pigweed [5, 10] | Plant response rating, Pigweed [5, 11] | Plant response rating, Pigweed [5, 12] | Plant response rating, Pigweed [5, 13] | further results |
| --- | --- | --- | --- | --- | --- | --- | --- | --- | --- | --- | --- | --- | --- | --- | --- | --- | --- | --- | --- | --- | --- |
| Nc1nc(-c2ccc(Cl)cc2)nc(C(=O)O)c1Br [Compound 88] | 50 | 85 | 10 | 55 | 60 | 85 | 35 | 85 | 80 | 90 | 10 | 50 | 60 | 85 | 10 | 90 | 90 | 95 | 80 | 100 | Plant response rating, Velvetleaf [6, 10]: 90; Plant response rating, Velvetleaf [6, 11]: 95; Plant response rating, Velvetleaf [6, 12]: 10; Plant response rating, Velvetleaf [6, 13]: 70; Plant response rating (scale of 0 to 100), Bermudagrass ([7]; Postemergence, 31 g ai/ha): 50; Bermudagrass plant response rating ([7]; Postemergence, 62 g ai/ha): 70; Bermudagrass plant response rating ([7]; Postemergence, 125 g ai/ha): 70; Plant response rating, Bermudagrass [7, 14]: 80; Plant response rating (scale of 0 to 100), Foxtail, Giant ([8]; Postemergence, 31 g ai/ha): 55; Plant response rating (scale of 0 to 100), Foxtail, Giant ([8]; Postemergence, 62 g ai/ha): 75; Foxtail, Giant plant response rating [8, 15]: 80; Plant response rating, Foxtail, Giant [8, 14]: 85; Plant response rating (scale of 0 to 100), Johnsongrass ([9]; Postemergence, 31 g ai/ha): 30; Plant response rating (scale of 0 to 100), Johnsongrass ([9]; Postemergence, 62 g ai/ha): 45; Johnsongrass plant response rating [9, 15]: 75; Plant response rating, Johnsongrass [9, 14]: 85; Plant response rating (scale of 0 to 100), Soybean (soybean (Glycine max); Postemergence, 31 g ai/ha): 100; Plant response rating (scale of 0 to 100), Soybean (soybean (Glycine max); Postemergence, 62 g ai/ha): 100; Soybean plant response rating (soybean (Glycine max); [15]): 100; Plant response rating, Soybean (soybean (Glycine max); [14]): 100 |
| CCCOC(=O)c1nc(C2CC2)nc(N)c1Cl [Compound 75] | 85 | 90 | 70 | 95 | 80 | 90 | 85 | 90 | 90 | 90 | 75 | 90 | 90 | 90 | 95 | 100 | 90 | 100 | 90 | 95 | Plant response rating, Velvetleaf [6, 10]: 85; Plant response rating, Velvetleaf [6, 11]: 100; Plant response rating, Velvetleaf [6, 12]: 80; Plant response rating, Velvetleaf [6, 13]: 95; Plant response rating, Bermudagrass [7, 16]: 0; Plant response rating, Bermudagrass [7, 17]: 0; Plant response rating, Bermudagrass [7, 18]: 0; Plant response rating, Bermudagrass [7, 19]: 20; Plant response rating, Foxtail, Giant [8, 16]: 0; Plant response rating, Foxtail, Giant [8, 17]: 0; Plant response rating, Foxtail, Giant [8, 18]: 0; Plant response rating, Foxtail, Giant [8, 19]: 10; Plant response rating, Johnsongrass [9, 16]: 0; Plant response rating, Johnsongrass [9, 17]: 0; Plant response rating, Johnsongrass [9, 18]: 50; Plant response rating, Johnsongrass [9, 19]: 55; Plant response rating, Soybean (soybean (Glycine max); [16]): 55; Plant response rating, Soybean (soybean (Glycine max); [17]): 60; Plant response rating, Soybean (soybean (Glycine max); [18]): 100 |
